# Assay results from patent publication US9610365B2, “Anthracenyl-tetralactam macrocycles and their use in detecting a target saccharide” (UNIVERSITY OF BRISTOL, priority 2012, dated 2017).
# Assays:
# [1] = 1H NMR titration, binding to carbohydrate substrate; conditions: for Ka: 1H NMR titration in D2O at 298 K
# Experimental: (§1) The binding of receptor compound 3 to carbohydrate substrates, in aqueous solution, was studied initially by ^1H NMR titrations at 298 K. The saccharides used as test substrates are shown in FIG. 7.
# (§2) Titrations were performed on a Varian™ 500 MHz spectrometer. Solutions of reducing carbohydrates were prepared in D2O and kept overnight at room temperature before the titration experiments, in order to ensure equilibration of anomers. In a typical titration, aliquots of carbohydrate solution were added to receptor solution (DSS as internal standard) and the ^1H NMR spectra were recorded. Variations in chemical shifts were entered into a specifically written non-linear least squares curve-fitting program implemented within Excel™. Assuming 1:1 stoichiometry, the program calculates Ka and the limiting change in chemical shift Δδ. The assumption is supported by the generally good fits between observed and calculated data.
# [2] = as above; conditions: 1H NMR titration in D2O at 298 K
# Experimental: as §1, §2
# [3] = as above; conditions: 1H NMR titration in D2O at 298 K; remark: listed apart in the source
# Experimental: as §1, §2
# [4] = as above; conditions: 1H NMR titration in D2O at 298 K; remark: listed apart in the source
# Experimental: as §1, §2
# [5] = as above; conditions: 1H NMR titration in D2O at 298 K; remark: listed apart in the source
# Experimental: as §1, §2
# [6] = as above; conditions: 1H NMR titration in D2O at 298 K; remark: listed apart in the source
# Experimental: as §1, §2
# [7] = as above; conditions: 1H NMR titration in D2O at 298 K; remark: listed apart in the source
# Experimental: as §1, §2
# [8] = as above; conditions: 1H NMR titration in D2O at 298 K; remark: listed apart in the source
# Experimental: as §1, §2
# [9] = as above; conditions: 1H NMR titration in D2O at 298 K; remark: listed apart in the source
# Experimental: as §1, §2
# [10] = as above; conditions: 1H NMR titration in D2O at 298 K; remark: listed apart in the source
# Experimental: as §1, §2
# [11] = as above; conditions: 1H NMR titration in D2O at 298 K; ~0 = too small for analysis
# Experimental: as §1, §2
# [12] = as above; conditions: 1H NMR titration in D2O at 298 K; ~0 = too small for analysis; remark: listed apart in the source
# Experimental: as §1, §2
# [13] = as above; conditions: 1H NMR titration in D2O at 298 K; ~0 = too small for analysis; remark: listed apart in the source
# Experimental: as §1, §2
# [14] = as above; conditions: 1H NMR titration in D2O at 298 K; remark: listed apart in the source
# Experimental: as §1, §2
# [15] = as above; conditions: 1H NMR titration in D2O at 298 K; ~0 = too small for analysis; remark: listed apart in the source
# Experimental: as §1, §2
# [16] = as above; conditions: 1H NMR titration in D2O at 298 K; ~0 = too small for analysis; remark: listed apart in the source
# Experimental: as §1, §2
# [17] = as above; conditions: 1H NMR titration in D2O at 298 K; remark: listed apart in the source
# Experimental: as §1, §2
# [18] = as above; conditions: 1H NMR titration in D2O at 298 K; remark: listed apart in the source
# Experimental: as §1, §2
# [19] = as above; conditions: 1H NMR titration in D2O at 298 K; remark: listed apart in the source
# Experimental: as §1, §2
# [20] = as above; conditions: 1H NMR titration in D2O at 298 K; ~0 = too small for analysis; remark: listed apart in the source
# Experimental: as §1, §2
# [21] = as above; conditions: 1H NMR titration in D2O at 298 K; ~0 = too small for analysis; remark: listed apart in the source
# Experimental: as §1, §2
# [22] = as above
# Experimental: as §1, §2
# Fluorescence titration = type: binding; conditions: for Ka: fluorescence titration in phosphate buffer solution (pH 7.1, 0.1 M) at 298 K
# Experimental: (§3) Fluorescence titrations were carried out at 298 K on a PerkinElmer™ LS45 spectrometer in PBS (phosphate buffered saline) buffer solution (pH 7.1, 100 mM). The carbohydrate stock solutions were prepared by dissolving the carbohydrates in buffer containing the receptor at the concentration to be used in the titration (thus avoiding dilution of the receptor during the experiment). The solutions were kept overnight at room temperature before the titration experiments, in order to ensure equilibration of anomers. The wavelength to be used for fluorescence excitation was determined by measurement of the UV-visible spectrum of receptor 3 in the presence of carbohydrates. 394 nm was chosen, because at this wavelength the absorption of receptor was almost independent of carbohydrate concentration. In a typical titration, aliquots of carbohydrate-receptor solution were added to receptor solution (2.5 mL) in a quartz cuvette (3 mL, 10 mm pathway). The solution was stirred for 2 minutes and left to stand for another 1 minute before the emission spectrum was recorded. Binding constants were calculated using non-linear curve fitting assuming 1:1 binding stoichiometry, employing both Kaleidagraph™ and a customised Excel™ spreadsheet. Errors were estimated at <5%.
# [23] = Isothermal titration calorimetry (ITC); type: binding
# Experimental: (§4) Experiments were performed on a VP-ITC™ (Microcal, Inc., Northampton, Mass.) at 298 K. Stock solutions of carbohydrates were made up in pure HPLC grade water and allowed to equilibrate overnight. Receptor solutions were made up in pure water. All the solutions were degassed and thermostated using the ThermoVac™ accessory before titration. The sample cell volume was 1.4226 mL. Each titration experiment included 25-35 successive injections.
# [24] = Isothermal titration calorimetry (ITC); type: binding; conditions: ITC titration in water at 298 K
# Experimental: as §4
# [25] = 1H NMR titration, summary for non-target monosaccharides; type: binding; conditions: all non-target monosaccharides aside from methyl α-D-glucoside
# Experimental: as §1, §2
# [26] = Fluorescence emission properties of the receptor; type: physicochemical
# Experimental: as §3, with “The solution was stirred for 2 minutes and left to stand for another 1 minute before the emission spectrum was recorded. Binding constants were calculated using non-linear curve fitting assuming 1:1 binding stoichiometry, employing both Kaleidagraph™ and a customised Excel™ spreadsheet. Errors were estimated at <5%.” left out
# It can be seen that on excitation with UV light at 394 nm, 3 emitted in the blue-violet region, peaking at 423 nm, with a quantum yield of 2.4% (20 μm aqueous solution). […] Binding constants obtained by this method were in good agreement with those measured by NMR titrations (see Table 1). Moreover these fluorescence characteristics are promising for practical glucose sensing, especially when compared to biphenyl-based synthetic lectins. […]
# [27] = Photobleaching under continuous UV irradiation in a fluorescence spectrometer; type: physicochemical; conditions: in 5 hours
# Experimental: Under continuous UV irradiation in a fluorescence spectrometer, emission decayed by <10% in 5 hours. In a practical glucose monitoring device this would translate to a long lifetime as the receptor compound would be subjected only to short pulses of light every few seconds.
# [28] = Solubility and aggregation in water/D2O (NMR dilution studies); type: physicochemical
# Experimental: The compound was dissolved in D2O at concentrations up to ˜4 mM giving clean, if slightly broadened, ^1H NMR spectra. Minor signal movements were observed on dilution to ˜1 mM but no further effect was observed below this concentration, implying that the system is monomeric at 1 mM or less.
# [29] = 1H NMR titration, 1.1 mM receptor, glucose 0 to 200 mM, 298 K
# [30] = 0.125 mM to 2 mM in D2O at 298 K
compound,measurement,setting,value
O=C(O)CCOCC(COCCC(=O)O)(COCCC(=O)O)NC(=O)c1cc2cc(c1)C(=O)NCc1c3ccccc3c(c3ccccc13)CNC(=O)c1cc(cc(C(=O)NC(COCCC(=O)O)(COCCC(=O)O)COCCC(=O)O)c1)C(=O)NCc1c3ccccc3c(c3ccccc13)CNC2=O [Compound 3],Ka,[1],56 M⁻¹
same,Ka,[1]; ~0 = too small for analysis,~0 M⁻¹
same,association constant Ka from movement of proton E,[1]; [29],58 M⁻¹
same,association constant Ka from movement of proton F,[1]; [29],54 M⁻¹
same,receptor occupancy,"[1]; 310 K, across the physiological range of 2-10 mM glucose",6-25%
same,response when added to receptor,[1]; lactate,Neither produced any response
same,affinity measured by NMR titration,[1]; physiological temperature (310 K),33 M⁻¹
same,Ka,[2],96 M⁻¹
same,Ka,[3],36 M⁻¹
same,Ka,[4],10 M⁻¹
same,Ka,[5],9 M⁻¹
same,Ka,[6],24 M⁻¹
same,Ka,[7],87 M⁻¹
same,Ka,[8],6 M⁻¹
same,Ka,[9],1 M⁻¹
same,Ka,[10],1 M⁻¹
same,Ka,[11],~0 M⁻¹
same,Ka,[12],~0 M⁻¹
same,Ka,[13],~0 M⁻¹
same,Ka,[14],1 M⁻¹
same,Ka,[15],~0 M⁻¹
same,Ka,[16],~0 M⁻¹
same,Ka,[17],28 M⁻¹
same,Ka,[18],35 M⁻¹
same,Ka,[19],16 M⁻¹
same,Ka,[20],~0 M⁻¹
same,Ka,[21],~0 M⁻¹
same,Ka,"[22]; 1H NMR titration in D2O at 298 K, ~0 = too small for analysis",~0 M⁻¹
same,response when added to receptor,[22]; mannitol,Neither produced any response
same,Ka,Fluorescence titration; binding data at 423 nm,58 M⁻¹
same,Ka,Fluorescence titration; with D -lactose,9 M⁻¹
same,Ka,Fluorescence titration; with methyl β-D-glucoside 10,121 M⁻¹
same,increase of emission intensity on addition of glucose (factor),"Fluorescence titration; receptor 18.8 μM, excitation 394 nm",up to 2.5
same,Ka,[23]; ITC titration in water at 298 K,55 M⁻¹
same,TΔS of binding,"[23]; ITC, 298 K, water",-1.4 kcal/mol
same,ΔH of binding,"[23]; ITC, 298 K, water",-3.8 kcal/mol
same,Ka,[24],101 M⁻¹
same,Ka,[25],≤ 1 m^−1
same,quantum yield,"[26]; 20 μm aqueous solution, excitation 394 nm",2.4%
same,emission peak,[26]; excitation with UV light at 394 nm,423 nm
same,emission decay (photobleaching),[27],< 10%
same,concentration at which system is monomeric,"[28]; D2O, NMR dilution",≤ 1 mM
same,concentration dissolved in D2O,[28]; giving clean 1H NMR spectra,~4 mM
O=C([O-])CCOCC(COCCC(=O)[O-])(COCCC(=O)[O-])NC(=O)c1cc2cc(c1)C(=O)NCc1c3ccccc3c(c3ccccc13)CNC(=O)c1cc(cc(C(=O)NC(COCCC(=O)[O-])(COCCC(=O)[O-])COCCC(=O)[O-])c1)C(=O)NCc1ccc(cc1)CNC2=O.[Na+].[Na+].[Na+].[Na+].[Na+].[Na+] [Compound 9],Ka,[1],too small to measure
same,Ka,[5],too small to measure
O=C([O-])CCC(CCC(=O)[O-])(CCC(=O)[O-])NC(=O)CCC(CCC(=O)NC(CCC(=O)[O-])(CCC(=O)[O-])CCC(=O)[O-])(CCC(=O)NC(CCC(=O)[O-])(CCC(=O)[O-])CCC(=O)[O-])NC(=O)c1cc2cc(c1)C(=O)NCc1c3ccccc3c(c3ccccc13)CNC(=O)c1cc(cc(C(=O)NC(CCC(=O)NC(CCC(=O)[O-])(CCC(=O)[O-])CCC(=O)[O-])(CCC(=O)NC(CCC(=O)[O-])(CCC(=O)[O-])CCC(=O)[O-])CCC(=O)NC(CCC(=O)[O-])(CCC(=O)[O-])CCC(=O)[O-])c1)C(=O)NCc1c3ccccc3c(c3ccccc13)CNC2=O.[Na+].[Na+].[Na+].[Na+].[Na+].[Na+].[Na+].[Na+].[Na+].[Na+].[Na+].[Na+].[Na+].[Na+].[Na+].[Na+].[Na+].[Na+] [Compound 13],Ka,[1],89 M⁻¹
same,increase in fluorescence emission upon binding with D-glucose,"Fluorescence titration; em 423 nm, ex 395 nm, 18.8 μM, phosphate buffer pH 7.1",approximately three-fold
same,Ka,Fluorescence titration; binding data at 423 nm,87 M⁻¹
same,aggregation during NMR dilution studies,[28]; [30],no indication of aggregation
same,solubility in water,[28]; [30],good solubility in water
